Among the test systems are SNB-19; TK-10; NCI/ADR-RES; OVCAR-5; Hs-578T; PC-3; 786-0; K562; RPMI-8226; NCI-H226; KM12; HL-60; CAKI-1; OVCAR-4; UACC-257; SW-620; SNB-75; HCT-15; UO-31; COLO 205.
What all share (experiment): NCI-60 cell line screen, 48 h

Structures are written as SMILES.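 Values below derive from 48-hour exposures of cells grown in 96-well plates, with endpoints linearly interpolated between the two concentrations bracketing the appropriate inhibition level. Abbreviation: GI50, concentration required for 50% inhibition of growth.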 Active and inactive are the calls of the source. Rule as the data show it: active = GI50 up to about 1.1 µM and inactive = higher.

With `Cc1nc(C(N)=S)sc1C(=O)C/C(=N/N)C(=O)Nc1cccc(Cl)c1C`, the GI50 with SNB-19, in the assay with TK-10, in the assay on NCI/ADR-RES, in the assay on OVCAR-5, with Hs-578T and in the assay on PC-3 was > 100 µM (inactive) in each case. The GI50 with 786-0, in the assay with K562, in the assay with RPMI-8226, with NCI-H226, in the assay with KM12 and with HL-60 was > 100 µM (inactive) each time. Further, the GI50 is > 100 µM (inactive) with CAKI-1; > 100 µM (inactive) with OVCAR-4; > 100 µM (inactive) in the assay on UACC-257; > 100 µM (inactive) in the assay with SW-620; > 100 µM (inactive) in the assay with SNB-75; greater than 100 µM with HCT-15. Besides, the GI50 in the assay on UO-31 was > 100 µM (inactive).

With `Oc1ccc2ccccc2c1/N=N/c1cc(Cl)ccc1Cl`, the GI50 was 15.8 µM (inactive) in the assay on SNB-19; 23.3 µM (inactive) with COLO 205; 16 µM (inactive) in the assay with TK-10; 31.6 µM (inactive) in the assay on NCI/ADR-RES; 11.7 µM (inactive) in the assay with OVCAR-5; 10.1 µM (inactive) in the assay with Hs-578T. Also, the GI50 was 43.5 µM (inactive) in the assay on PC-3; 9.14 µM (inactive) in the assay with 786-0; 20.7 µM (inactive) in the assay with K562; > 50 µM (inactive) in the assay with RPMI-8226; 49 µM (inactive) in the assay on NCI-H226; 17.7 µM (inactive) in the assay with KM12. Moreover, the GI50 is 22.6 µM (inactive) with HL-60; 34.4 µM (inactive) with CAKI-1; 13.9 µM (inactive) in the assay on OVCAR-4; > 50 µM (inactive) in the assay with UACC-257; 32.6 µM (inactive) with SW-620; 11.3 µM (inactive) in the assay with SNB-75. Also, the GI50 with HCT-15 was greater than 50 µM; in the assay with UO-31, 21.3 µM (inactive).

For the compound `CCOC(=O)C1(Cc2ccc3c(c2)CCC3)Cc2cc3c(cc2C1)CCC3`, the GI50 in the assay on SNB-19 was 36.7 µM (inactive); with COLO 205, 33.9 µM (inactive); in the assay on TK-10 it was > 100 µM (inactive); in the assay with NCI/ADR-RES it was 78.5 µM (inactive); with OVCAR-5, 45.6 µM (inactive); with Hs-578T, 34.8 µM (inactive). The GI50 in the assay with PC-3 is 21.9 µM (inactive); in the assay on 786-0, 29.6 µM (inactive); in the assay on K562, 15.2 µM (inactive); with RPMI-8226, 14.6 µM (inactive); in the assay with NCI-H226, 31.6 µM (inactive); in the assay with KM12, 40.7 µM (inactive). Further, the GI50 is > 100 µM (inactive) in the assay with HL-60; 45.7 µM (inactive) in the assay on CAKI-1; 28 µM (inactive) with OVCAR-4; 23.7 µM (inactive) in the assay with UACC-257; 23.9 µM (inactive) with SW-620; 75.5 µM (inactive) with SNB-75. For the same compound, the GI50 in the assay on HCT-15 was 32 µM; in the assay with UO-31 it was 49 µM (inactive).

Consider `CCCCCCCCCCOC1C(C(C)OCCCN(C)C)OC2OC3(CCCCC3)OC21` (centres undefined), for which the GI50 in the assay on SNB-19 was 12.4 µM (inactive); in the assay on COLO 205, 3.48 µM (inactive); in the assay on TK-10, 23.1 µM (inactive); with NCI/ADR-RES it was 17 µM (inactive); in the assay on OVCAR-5, 11.7 µM (inactive); with Hs-578T, 18.1 µM (inactive). The GI50 in the assay on PC-3 is 12.4 µM (inactive); in the assay on 786-0 it was 16.5 µM (inactive); in the assay on K562, 3.47 µM (inactive); in the assay on RPMI-8226, 4.32 µM (inactive); with NCI-H226 it was 17.2 µM (inactive); in the assay with HL-60, 6.37 µM (inactive). Further, the GI50 was 13.7 µM (inactive) with CAKI-1; 13.6 µM (inactive) with OVCAR-4; 20.8 µM (inactive) in the assay with UACC-257; 12.7 µM (inactive) with SW-620; 5.48 µM (inactive) with SNB-75; 1.36 µM with HCT-15. For the same compound, the GI50 in the assay on UO-31 was 17.9 µM (inactive).

Regarding `COC(=O)C(=O)C(C(=O)C(=O)Nc1ccc(C)c(C)c1)c1nc2ccc([N+](=O)[O-])cc2nc1O` (centres undefined), the GI50 is 18.5 µM (inactive) in the assay with SNB-19; > 100 µM (inactive) in the assay with TK-10; > 100 µM (inactive) in the assay with NCI/ADR-RES; > 100 µM (inactive) in the assay on OVCAR-5; > 100 µM (inactive) in the assay on Hs-578T; > 100 µM (inactive) in the assay on PC-3. In addition, the GI50 in the assay with 786-0, with K562, in the assay on RPMI-8226, in the assay on NCI-H226, with KM12 and with HL-60 was > 100 µM (inactive) in each case. For the same compound, the GI50 in the assay with CAKI-1 is > 100 µM (inactive); in the assay on OVCAR-4, > 100 µM (inactive); in the assay on UACC-257, > 100 µM (inactive); in the assay with SW-620 it was > 100 µM (inactive); in the assay with SNB-75 it was > 100 µM (inactive); in the assay on HCT-15, greater than 100 µM. The GI50 with UO-31 was 68.9 µM (inactive).

For the compound `Fc1ccc(Nc2nc(Cl)c3nc[nH]c3n2)cc1Cl`, the GI50 was > 100 µM (inactive) in the assay with SNB-19; > 100 µM (inactive) with COLO 205; > 100 µM (inactive) in the assay on TK-10; 37.8 µM (inactive) with NCI/ADR-RES; > 100 µM (inactive) in the assay with OVCAR-5; 39.9 µM (inactive) in the assay with Hs-578T. Besides, the GI50 in the assay with PC-3 is > 100 µM (inactive); in the assay with 786-0, 86.9 µM (inactive); in the assay with RPMI-8226, > 100 µM (inactive); in the assay on NCI-H226 it was > 100 µM (inactive); with KM12, > 100 µM (inactive); in the assay on HL-60 it was > 100 µM (inactive). The GI50 was 6.97 µM (inactive) in the assay on CAKI-1; > 100 µM (inactive) in the assay with OVCAR-4; > 100 µM (inactive) with UACC-257; > 100 µM (inactive) in the assay with SW-620; 41.4 µM (inactive) in the assay on SNB-75; greater than 100 µM in the assay on HCT-15. Moreover, the GI50 in the assay with UO-31 is 4.74 µM (inactive).

For the compound `NC12c3c4cccc3Oc3cccc(c31)Oc1cccc(c12)O4`, the GI50 is > 50 µM (inactive) with SNB-19; > 50 µM (inactive) with COLO 205; > 50 µM (inactive) in the assay on NCI/ADR-RES; > 50 µM (inactive) in the assay with OVCAR-5; 31.3 µM (inactive) in the assay with Hs-578T; > 50 µM (inactive) in the assay on PC-3. The GI50 in the assay with 786-0 was > 50 µM (inactive); in the assay with K562, 31 µM (inactive); in the assay with RPMI-8226 it was > 50 µM (inactive); in the assay on NCI-H226, > 50 µM (inactive); with KM12, > 50 µM (inactive); with HL-60 it was 18.2 µM (inactive). In addition, the GI50 is > 50 µM (inactive) in the assay with CAKI-1; > 50 µM (inactive) in the assay on OVCAR-4; > 50 µM (inactive) in the assay on UACC-257; > 50 µM (inactive) in the assay with SW-620; > 50 µM (inactive) in the assay on SNB-75; greater than 50 µM in the assay on HCT-15. Moreover, the GI50 in the assay with UO-31 was > 50 µM (inactive).

In the case of `O=C(O)c1cscc1Cc1cccs1`, the GI50 with SNB-19, with COLO 205, in the assay with TK-10, with NCI/ADR-RES, with OVCAR-5 and in the assay with Hs-578T was > 100 µM (inactive) each time. In addition, the GI50 in the assay with PC-3 is > 100 µM (inactive); in the assay on 786-0, > 100 µM (inactive); in the assay with K562, > 100 µM (inactive); with RPMI-8226 it was > 100 µM (inactive); in the assay on NCI-H226, 23.5 µM (inactive); in the assay with KM12, > 100 µM (inactive). The GI50 is > 100 µM (inactive) in the assay on HL-60; > 100 µM (inactive) in the assay with CAKI-1; > 100 µM (inactive) in the assay on OVCAR-4; > 100 µM (inactive) in the assay with UACC-257; > 100 µM (inactive) in the assay on SW-620; 57.8 µM (inactive) with SNB-75. For the same compound, in the assay on HCT-15, the GI50 is greater than 100 µM.

For the origin of these results see ChEMBL document CHEMBL1201862, “PubChem BioAssay data set” (2004).
